15 compounds from patent publication US20100204203A1, “Chemical Compounds 637: Pyridopyrimidinediones as PDE4 Inhibitors” (priority 2007, published 2010) can be followed below.

This assay addresses recombinant Human Phosphodiesterase B2 (PDE4B2) (Homo sapiens, UniProt Q07343). The assay can be described thus: Human Phosphodiesterase B2 Radiometric Assay (yttrium silicate SPA beads, [3H]cyclic AMP). Type of assay: biochemical. Particulars: recombinant human PDE4B2, radiometric SPA assay, 8 nM [3H]cyclic AMP; read-out: PDE4B2 pIC50 (converted). The method in brief: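 Compounds were preincubated 30 min at 30 °C with 0.1 mg/mL PDE4B2 in 50 mM HEPES pH 7.5, 8.3 mM MgCl2, 1.7 mM EGTA, 0.01% Brij 35. Then 8 nM [3H]cAMP was added for 20 min, stopped with yttrium silicate SPA beads plus 18 mM ZnSO4 capturing product 5′AMP; pIC50 by curve fitting.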

recombinant Human Phosphodiesterase B2 (PDE4B2), sequence (Q07343 1-564 isoform Q07343-2): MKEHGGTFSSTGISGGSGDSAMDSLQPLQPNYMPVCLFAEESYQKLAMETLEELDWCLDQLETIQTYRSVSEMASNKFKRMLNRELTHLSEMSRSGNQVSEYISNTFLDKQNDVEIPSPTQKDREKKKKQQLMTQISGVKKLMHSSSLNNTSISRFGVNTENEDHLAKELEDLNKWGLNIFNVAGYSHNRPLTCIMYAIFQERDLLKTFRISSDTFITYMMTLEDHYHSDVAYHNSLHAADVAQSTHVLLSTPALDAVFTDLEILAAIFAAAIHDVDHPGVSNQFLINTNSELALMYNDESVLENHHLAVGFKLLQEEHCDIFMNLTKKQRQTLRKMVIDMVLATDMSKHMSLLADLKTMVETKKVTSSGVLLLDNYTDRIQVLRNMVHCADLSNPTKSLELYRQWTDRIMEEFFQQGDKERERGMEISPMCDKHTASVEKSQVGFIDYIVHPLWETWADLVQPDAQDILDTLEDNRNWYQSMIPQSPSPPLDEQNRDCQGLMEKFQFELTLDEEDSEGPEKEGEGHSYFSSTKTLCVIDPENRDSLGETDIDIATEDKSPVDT

Consider `CC(C)N1CCN(Cc2ccc(-c3cccc(-n4c(=O)n([C@H]5CC[C@@H](NCc6c(C(F)(F)F)nn(C)c6Cl)CC5)c(=O)c5cc(F)cnc54)c3)cc2)CC1` [Example 262, 3-[cis-4-({[5-chloro-1-methyl-3-(trifluoromethyl)-1H-pyrazol-4-yl]methyl}amino)cyclohexyl]-6-fluoro-1-{4′-[(4-isopropyl-piperazin-1-yl}methyl]biphenyl-3-yl}pyrido[2,3-d]pyrimidine-2,4(1H,3H)-dione], for which the IC50 was 0.794 nM.

On to `Cc1c(CN[C@H]2CC[C@@H](n3c(=O)c4cc(F)cnc4n(-c4cccc(-c5ccc(CN6CCN(C(C)C)CC6)cc5)c4)c3=O)CC2)ncn1Cc1ccccc1` [Example 263, 3-(cis-4-{[(1-benzyl-5-methyl-1H-imidazol-4-yl)methyl]amino}cyclohexyl)-6-fluoro-1-{4′-[(4-isopropylpiperazin-1-yl)methyl]biphenyl-3-yl}pyrido[2,3-d] pyrimidine-2,4(1H,3H)-dione], for which the IC50 is 1.58 nM.

For the compound `CC(C)N1CCN(Cc2ccc(-c3cccc(-n4c(=O)n([C@H]5CC[C@@H](NCc6cnn(C)c6-c6ccccc6)CC5)c(=O)c5cc(F)cnc54)c3)cc2)CC1` [Example 264, 6-fluoro-1-{4′-[(4-isopropyl-piperazin-1-yl)methyl]biphenyl-3-yl}-3-(cis-4-{[(1-methyl-5-phenyl-1H-pyrazol-4-yl)methyl]amino}cyclohexyl)pyrido[2,3-d] pyrimidine-2,4(1H,3H)-dione], the IC50 was 2.51 nM.

In the case of `Cn1ncc(CN[C@H]2CC[C@@H](n3c(=O)c4cc(F)cnc4n(-c4cccc(-c5ccc(CN6CCCOCC6)cc5)c4)c3=O)CC2)c1-c1ccccc1` [Example 265, 6-fluoro-3-(cis-4-{[(1-methyl-5-phenyl-1H-pyrazol-4-yl)methyl]amino}cyclohexyl)-1-[4′-(1,4-oxazepan-4-ylmethyl)biphenyl-3-yl]pyrido[2,3-d]pyrimidine-2,4(1H,3H)-dione], the IC50 is 2 nM.

Consider `CC(=O)n1cc(CN[C@H]2CC[C@@H](n3c(=O)c4cc(F)cnc4n(-c4cccc(-c5ccc(CN6CCCOCC6)cc5)c4)c3=O)CC2)c2ccccc21` [Example 266, 3-(cis-4-{[(1-acetyl-1H-indol-3-yl)methyl]amino}cyclohexyl)-6-fluoro-1-[4′-(1,4-oxazepan-4-ylmethyl)biphenyl-3-yl] pyrido[2,3-d]pyrimidine-2,4(1H,3H)-dione], for which the IC50 was 1 nM.

In the case of `COc1ccc(O)c(CN[C@H]2CC[C@@H](n3c(=O)c4cc(F)cnc4n(-c4cccc(-c5ccc(CN6CCCOCC6)cc5)c4)c3=O)CC2)c1` [Example 267, 6-fluoro-3-{cis-4-[(2-hydroxy-5-methoxybenzyl)amino]cyclohexyl}-1-[4′-(1,4-oxazepan-4-ylmethyl)biphenyl-3-yl]pyrido[2,3-d] pyrimidine-2,4(1H,3H)-dione], the IC50 was 1.58 nM.

With `O=C(N[C@H]1CC[C@@H](n2c(=O)c3cc(F)cnc3n(-c3cccc(-c4ccc(CNC5CCNCC5)cc4)c3)c2=O)CC1)c1cn2cc(F)ccc2n1` [Example 268, 6-Fluoro-N-{cis-4-[6-fluoro-2,4-dioxo-1-{4′-[(piperidin-4-ylamino)methyl]biphenyl-3-yl}-1,4-dihydropyrido[2,3-d]pyrimidin-3(2H)-yl]cyclohexyl}imidazo[1,2-a]pyridine-2-carboxamide], the IC50 was 0.0126 nM.

`CN1CCN(Cc2ccc(-c3cccc(-n4c(=O)n([C@H]5CC[C@@H](NC(=O)c6cn7cc(F)ccc7n6)CC5)c(=O)c5cc(F)cnc54)c3)cc2)CC1` [Example 269, 6-Fluoro-N-{cis-4-[6-fluoro-1-{4′-[(4-methylpiperazin-1-yl)methyl]biphenyl-3-yl}-2,4-dioxo-1,4-dihydropyrido[2,3-d]pyrimidin-3(2H)-yl]cyclohexyl}imidazo[1,2-a]pyridine-2-carboxamide]: the IC50 is 0.02 nM.

On to `C[C@@H]1CN(Cc2ccc(-c3cccc(-n4c(=O)n([C@H]5CC[C@@H](NC(=O)c6cn7cc(F)ccc7n6)CC5)c(=O)c5cc(F)cnc54)c3)cc2)C[C@H](C)N1` [Example 270, N-{cis-4-[1-(4′-{[(3R,5S)-3,5-Dimethylpiperazin-1-yl]methyl}biphenyl-3-yl)-6-fluoro-2,4-dioxo-1,4-dihydropyrido[2,3-d]pyrimidin-3(2H)-yl]cyclohexyl}-6-fluoroimidazo[1,2-a]pyridine-2-carboxamide], for which the IC50 is 0.00631 nM.

`CN(C)Cc1ccc(-c2cccc(-n3c(=O)n([C@H]4CC[C@@H](NC(=O)c5ccccc5OCCO)CC4)c(=O)c4cc(F)cnc43)c2)cc1` [Example 272, N-{cis-4-[1-{4′-[(Dimethylamino)methyl]biphenyl-3-yl}-6-fluoro-2,4-dioxo-1,4-dihydropyrido[2,3-d]pyrimidin-3(2H)-yl]cyclohexyl}-2-(2-hydroxyethoxy)benzamide]: the IC50 is 0.794 nM.

Take `CN(C)Cc1cc(F)ccc1-c1cccc(-n2c(=O)n([C@H]3CC[C@@H](NC(=O)c4cn5cc(F)ccc5n4)CC3)c(=O)c3cc(F)cnc32)c1` [Example 273, N-{cis-4-[1-{2′-[(Dimethylamino)methyl]-4′-fluorobiphenyl-3-yl}-6-fluoro-2,4-dioxo-1,4-dihydropyrido[2,3-d]pyrimidin-3(2H)-yl]cyclohexyl}-6-fluoroimidazo[1,2-a]pyridine-2-carboxamide]: the IC50 was 0.00398 nM.

As to `O=C(N[C@H]1CC[C@@H](n2c(=O)c3cc(F)cnc3n(-c3cccc(-c4ccc(CN5CCNCC5)cc4O)c3)c2=O)CC1)c1cn2cc(F)ccc2n1` [Example 274, 6-Fluoro-N-{cis-4-[6-fluoro-1-[2′-hydroxy-4′-(piperazin-1-ylmethyl)biphenyl-3-yl]-2,4-dioxo-1,4-dihydropyrido[2,3-d]pyrimidin-3(2H)-yl]cyclohexyl}imidazo[1,2-a]pyridine-2-carboxamide], the IC50 was 0.0631 nM.

Take `CCCNC1(C(=O)N[C@H]2CC[C@@H](n3c(=O)c4cc(F)cnc4n(-c4cccc(-c5ccccc5CN5CCOCC5)c4)c3=O)CC2)CCCC1` [Example 275, N-{cis-4-[6-Fluoro-1-[2′-(morpholin-4-ylmethyl)biphenyl-3-yl]-2,4-dioxo-1,4-dihydropyrido[2,3-d]pyrimidin-3(2H)-yl]cyclohexyl}-1-(propylamino)cyclopentanecarboxamide]: the IC50 was 3.98 nM.

Turning to `CN(C)Cc1cc(O)ccc1-c1cccc(-n2c(=O)n([C@H]3CC[C@@H](NCc4cn5cc(F)ccc5n4)CC3)c(=O)c3cc(F)cnc32)c1` [Example 277, 1-{2′-[(dimethylamino)methyl]-4′-hydroxybiphenyl-3-yl}-6-fluoro-3-(cis-4-{[(6-fluoroimidazo[1,2-a]pyridin-2-yl)methyl]amino}cyclohexyl)pyrido[2,3-d]pyrimidine-2,4(1H,3H)-dione], the IC50 is 0.794 nM.

For `Cc1ccc(CN[C@H]2CC[C@@H](n3c(=O)c4cc(F)cnc4n(-c4cccc(-c5ccc(O)cc5CN5CCOCC5)c4)c3=O)CC2)cc1` [Example 278, 6-fluoro-1-[4′-hydroxy-2′-(morpholin-4-ylmethyl)biphenyl-3-yl]-3-{cis-4-[(4-methylbenzyl)amino]cyclohexyl}pyrido[2,3-d] pyrimidine-2,4(1H,3H)-dione], the IC50 was 0.794 nM.
